Data: patent publication US4378358A, “Benzothiazinopyrazoles having pharmacological activity” (Mediolanum Farmaceutici s.r.l., priority 1980, dated 1983)
Like-named read-outs stand apart in the source and are kept apart here.

Assays:
in vivo [1] = format: in vivo; settings: rat, in vivo, po; read-out: LD 50 (Litchfield and Wilcoxon)
Rat [2] = test: in vivo; format: in vivo; settings: per os
in vivo [3] = settings: rat, in vivo, po
From the text: (§1) Five days subacute toxicity in rats per os
(§2) Animals: 5 female rats for each group, average body weight: 150g.

rats [4] = test: in vivo; settings: 5 days, rats, per os
From the text: as §1, §2

rats [5] = format: in vivo, rat; settings: for Average number of lesions per animal: 100 mg/kg (maximum tested dose); for Average number of lesions per animal / Gastrolesive effect, relative potency to naproxen / Gastrolesive effect, relative potency to piroxicam: single oral administration, male rats
Method: The test was modified by increasing the fast period to 70 hours and giving the total dose of substance in one single oral administration.
Animals: 10 male rats for each group, average body weight: 150g.

pyresis = test: Antipyretic activity according to Burn et al.; format: in vivo, rat; settings: for Reduction of the pyresis at hour 4: female rats
From the text: Animals: 6 female rats for each group, average body weight 200 g.

phenylquinone writhes = test: Analgesic activity according to Hendershot et al., phenylquinone writhes, modified; format: in vivo, mouse
Method: Analgesic activity according to HENDERSHOT et al., Jour. Pharm.
The test was modified by numbering the writhes only along the time interval from 5 to 15 minutes since the injection of phenylquinone. The injection was made 2 hours after the oral administration of the compound to be tested.
Animals: 8 female mice for each group, average body weight: 25g

carrageenin paw edema = test: Antiinflammatory activity according to Winter et al., carrageenin paw edema, modified; format: in vivo, rat
Method: Antiinflammatory activity according to WINTER et al., Proc. Soc. Exp. Biol. Med.; 111, 544; 1962.
The test was modified in that the injection of carrageenin and the administration of the compound by gastric gavage were carried out simultaneously and the paw edema was measured at the plethysmograph after 4 hours.
Animals: 6 female rats for each group, average body weight: 150g

in vivo [6] = settings: mouse, po
Rat [7] = settings: per os, literature value (footnotes a, b); cited from earlier work
[8] = 350 mg/kg/day, read-out: % of dead animals
[9] = 50 mg/g (so in the source) per os
[10] = 100 mg/g (so in the source) per os
[11] = Mus musculus, 50 mg/kg oral, 2 h before phenylquinone, 5-15 min, female mice
[12] = Mus musculus, 100 mg/kg oral, 2 h before phenylquinone, 5-15 min, female mice
[13] = Rattus norvegicus, po, 4 h, 50 mg/kg per os, female rats, read-out: % inhibition of the edema after 4 hours
[14] = Rattus norvegicus, po, 4 h, 100 mg/kg per os, female rats, read-out: % inhibition of the edema after 4 hours
[15] = 200 mg/kg/day, read-out: % of dead animals

Compound | LD50 (in vivo [1]) [mg/kg] | LD 50, relative ratio to piroxicam (Rat [2]) | Subacute toxicity, relative ratio to naproxen (rats [4]) | Subacute toxicity, relative ratio to piroxicam (rats [4]) | Average number of lesions per animal (rats [5]) | Gastrolesive effect, relative potency to naproxen (rats [5]) | Gastrolesive effect, relative potency to piroxicam (rats [5]) | Antipyretic relative potency to naproxen (pyresis; [9]) | Antipyretic relative potency to piroxicam (pyresis; [9]) | Reduction of the pyresis at hour 4 (pyresis; [9]) [°C] | Antipyretic relative potency to naproxen (pyresis; [10]) | Antipyretic relative potency to piroxicam (pyresis; [10]) | Reduction of the pyresis at hour 4 (pyresis; [10]) [°C] | Analgesic relative potency to naproxen (phenylquinone writhes; 50 mg/kg oral) | Analgesic relative potency to piroxicam (phenylquinone writhes; 50 mg/kg oral) | Analgesic relative potency to naproxen (phenylquinone writhes; 100 mg/kg oral) | Analgesic relative potency to piroxicam (phenylquinone writhes; 100 mg/kg oral) | inhibition in vivo at 50 mg/kg (phenylquinone writhes; [11]) [%] | inhibition in vivo at 100 mg/kg (phenylquinone writhes; [12]) [%] | Antiinflammatory relative potency to naproxen (carrageenin paw edema; 50 mg/kg per os) | also measured
CCN(CC)CCNC(=O)c1nn(-c2cccc(F)c2)c2c1N(C)S(=O)(=O)c1ccccc1-2 [Compound I-20] | 2220 | 8.2 | 7 | 17 | 0 | > 20 | 100 | 0.4 | 0.5 | 0.45 | 0.7 | 0.8 | 0.75 | 1.3 | 1.0 | 2.2 | 1.6 | 44 | 72 | 0.7 | LD 50, relative ratio to naproxen (Rat [2]): 4.1; mortality at 120 h (in vivo [3]; [8]): 0%; Antiinflammatory relative potency to piroxicam (carrageenin paw edema; 50 mg/kg per os): 0.3; Antiinflammatory relative potency to naproxen (carrageenin paw edema; 100 mg/kg per os): 1.0; Antiinflammatory relative potency to piroxicam (carrageenin paw edema; 100 mg/kg per os): 0.5; inhibition in vivo at 50 mg/kg (carrageenin paw edema; [13]): 15%; inhibition in vivo at 100 mg/kg (carrageenin paw edema; [14]): 21%; LD 50, relative ratio to naproxen (Mouse; per os): 1.3; LD 50, relative ratio to piroxicam (Mouse; per os): 4.4; LD50 (in vivo [6]): 1600 mg/kg
CN(C)CCCNC(=O)c1nn(-c2cccc(F)c2)c2c1N(C)S(=O)(=O)c1ccccc1-2 [Compound I-21] | 2260 | 8.4 | 7 | 17 | 0 | > 20 | 100 | 0.4 | 0.5 | 0.47 | 0.7 | 0.8 | 0.75 | 1.4 | 1.0 | 2.0 | 1.4 | 47 | 65 | 0.6 | LD 50, relative ratio to naproxen (Rat [2]): 4.2; mortality at 120 h (in vivo [3]; [8]): 0%; Antiinflammatory relative potency to piroxicam (carrageenin paw edema; 50 mg/kg per os): 0.3; Antiinflammatory relative potency to naproxen (carrageenin paw edema; 100 mg/kg per os): 0.9; Antiinflammatory relative potency to piroxicam (carrageenin paw edema; 100 mg/kg per os): 0.4; inhibition in vivo at 50 mg/kg (carrageenin paw edema; [13]): 12%; inhibition in vivo at 100 mg/kg (carrageenin paw edema; [14]): 19%; LD 50, relative ratio to naproxen (Mouse; per os): 1.2; LD 50, relative ratio to piroxicam (Mouse; per os): 4.2; LD50 (in vivo [6]): 1520 mg/kg
CN1c2c(C(=O)NCCCNC3CCCCC3)nn(-c3cccc(F)c3)c2-c2ccccc2S1(=O)=O [Compound I-23] | 1200 | 4.4 | 4 | 10 | 0 | > 20 | 100 | 1.1 | 1.3 | 1.20 | 1.3 | 1.6 | 1.42 | 1.6 | 1.2 | 2.4 | 1.7 | 54 | 79 | 1.3 | LD 50, relative ratio to naproxen (Rat [2]): 2.2; mortality at 120 h (in vivo [3]; [15]): 0%; Antiinflammatory relative potency to piroxicam (carrageenin paw edema; 50 mg/kg per os): 0.6; Antiinflammatory relative potency to naproxen (carrageenin paw edema; 100 mg/kg per os): 1.8; Antiinflammatory relative potency to piroxicam (carrageenin paw edema; 100 mg/kg per os): 0.8; inhibition in vivo at 50 mg/kg (carrageenin paw edema; [13]): 27%; inhibition in vivo at 100 mg/kg (carrageenin paw edema; [14]): 38%; LD 50, relative ratio to piroxicam (Mouse; in vivo): 2.0; LD50 (in vivo [6]): 720 mg/kg
CCN1CCCC1CNC(=O)c1nn(-c2ccccc2)c2c1N(C)S(=O)(=O)c1ccccc1-2 (stereo not drawn) [Compound I-24] | 1060 | 3.9 | 4 | 10 | 0 | > 20 | 100 | 0.7 | 0.9 | 0.81 | 1.1 | 1.4 | 1.24 | 0.9 | 0.7 | 1.4 | 1.0 | 30 | 47 | 1.8 | mortality at 120 h (in vivo [3]; [15]): 0%; Antiinflammatory relative potency to piroxicam (carrageenin paw edema; 50 mg/kg per os): 0.8; Antiinflammatory relative potency to naproxen (carrageenin paw edema; 100 mg/kg per os): 2.1; Antiinflammatory relative potency to piroxicam (carrageenin paw edema; 100 mg/kg per os): 1.0; inhibition in vivo at 50 mg/kg (carrageenin paw edema; [13]): 38%; inhibition in vivo at 100 mg/kg (carrageenin paw edema; [14]): 45%; LD 50, relative ratio to piroxicam (Mouse; per os): 2.1; LD50 (in vivo [6]): 760 mg/kg
CN1C(C(=O)Nc2ccccn2)=C(O)c2ccccc2S1(=O)=O [Piroxicam, piroxicam, reference compound] | – | 1 | – | 1 | – | – | 1 | – | – | – | – | – | – | – | – | – | – | – | – | – | mortality at 120 h (in vivo [3]; 20 mg/kg/day): 0%; mortality (in vivo [3]; 30 mg/kg/day): 6%; mortality at 120 h (in vivo [3]; 30 mg/kg/day): 40%; Gastric ulcerogenicity (in words) (rats [5]; rat, in vivo): considerable gastrolesive power; Reduction of the pyresis at hour 4 (pyresis; 10 mg/g (so in the source) per os): 0.89 °C; inhibition in vivo at 10 mg/kg (phenylquinone writhes; Mus musculus, 10 mg/kg oral, 2 h before phenylquinone, 5-15 min, female mice): 46%; inhibition in vivo at 10 mg/kg (carrageenin paw edema; Rattus norvegicus, po, 4 h, 10 mg/kg per os, female rats, read-out: % inhibition of the edema after 4 hours): 45%; LD 50, relative ratio to piroxicam (Mouse; per os): 1; LD 50 (Litchfield and Wilcoxon) (Rat [7]): 270 mg/kg
